# Data from patent US9981988B2, “Polymorphic forms and co-crystals of a c-Met inhibitor” (AMGEN, INC., priority 2014, dated 2018).
# Experiments:
# Assay type in all cases: physicochemical
# [1] = Solid state stability under accelerated stability testing conditions, HPLC
# Description: High performance liquid chromatography (HPLC) analyses were performed on an Agilent 1100 or 1200 series HPLC equipped with a binary pump, diode-array detector, thermostated column compartment, and auto sampler. Separation and elution was achieved using a reverse-phase column and 0.1% triflouroacetic acid/water/acetonitrile mobile phase.
# Solid samples of the free base monohydrate form of Compound M were placed under accelerated stability testing conditions (25° C./60% RH, 40° C./75% RH and 60° C./ambient RH) for 12 weeks.
# [2] = Dynamic vapor sorption / moisture sorption
# Description: Moisture sorption data was collected using a Surface Measurement Systems DVS-Advantage instrument. Equilibrium criteria were set at ±0.002% weight change in 5 minutes with a maximum equilibrium time of 360 minutes.
# [3] = Equilibrium solubility in water and aqueous media; settings: water, 22.5 °C, thermodynamic from solid
smiles,measurement,setting,value
"COCCOc1cnc2ccn([C@H](C)c3nnc4c(F)cc(-c5cnn(C)c5)cn34)c(=O)c2c1 [free base monohydrate form of Compound M, 6-{(1R)-1-[8-fluoro-6-(1-methyl-1H-pyrazol-4-yl)[1,2,4]triazolo[4,3-a]pyridin-3-yl]ethyl}-3-(2-methoxyethoxy)-1,6-naphthyridin-5(6H)-one]","Area % (215 nm), peak 2, RRT 1.09","[1]; Week 2, 40/75",0.31 Area %
same,"Area % (215 nm), peak 3, RRT 1.25","[1]; Week 2, 40/75",0.35 Area %
same,"Area % (215 nm), peak 4, RRT 1.53","[1]; Week 2, 40/75",<0.1 Area %
same,"Area % (215 nm), peak monohydrate, RRT 1.00","[1]; Week 2, 40/75",99.35 Area %
same,"Total Impurities, Area % (215 nm)","[1]; Week 2, 40/75",0.65 Area %
same,"Area % (215 nm), peak 2, RRT 1.09","[1]; Week 2, 60 C.",0.25 Area %
same,"Area % (215 nm), peak 3, RRT 1.25","[1]; Week 2, 60 C.",0.27 Area %
same,"Area % (215 nm), peak 4, RRT 1.53","[1]; Week 2, 60 C.",0.27 Area %
same,"Area % (215 nm), peak monohydrate, RRT 1.00","[1]; Week 2, 60 C.",99.21 Area %
same,"Total Impurities, Area % (215 nm)","[1]; Week 2, 60 C.",0.79 Area %
same,"Area % (215 nm), peak 2, RRT 1.09","[1]; Week 4, 25/60",<0.1 Area %
same,"Area % (215 nm), peak 3, RRT 1.25","[1]; Week 4, 25/60",<0.1 Area %
same,"Area % (215 nm), peak 4, RRT 1.53","[1]; Week 4, 25/60",<0.1 Area %
same,"Area % (215 nm), peak monohydrate, RRT 1.00","[1]; Week 4, 25/60",99.90 Area %
same,"Total Impurities, Area % (215 nm)","[1]; Week 4, 25/60",0.01 Area %
same,"Area % (215 nm), peak 2, RRT 1.09","[1]; Week 4, 40/75",<0.1 Area %
same,"Area % (215 nm), peak 3, RRT 1.25","[1]; Week 4, 40/75",<0.1 Area %
same,"Area % (215 nm), peak 4, RRT 1.53","[1]; Week 4, 40/75",<0.1 Area %
same,"Area % (215 nm), peak monohydrate, RRT 1.00","[1]; Week 4, 40/75",99.86 Area %
same,"Total Impurities, Area % (215 nm)","[1]; Week 4, 40/75",0.14 Area %
same,"Area % (215 nm), peak 2, RRT 1.09","[1]; Week 4, 60 C.",<0.1 Area %
same,"Area % (215 nm), peak 3, RRT 1.25","[1]; Week 4, 60 C.",<0.1 Area %
same,"Area % (215 nm), peak 4, RRT 1.53","[1]; Week 4, 60 C.",<0.1 Area %
same,"Area % (215 nm), peak monohydrate, RRT 1.00","[1]; Week 4, 60 C.",99.90 Area %
same,"Total Impurities, Area % (215 nm)","[1]; Week 4, 60 C.",<0.1 Area %
same,"Area % (215 nm), peak 2, RRT 1.09","[1]; Week 8, 25/60",<0.1 Area %
same,"Area % (215 nm), peak 3, RRT 1.25","[1]; Week 8, 25/60",<0.1 Area %
same,"Area % (215 nm), peak 4, RRT 1.53","[1]; Week 8, 25/60",<0.1 Area %
same,"Area % (215 nm), peak monohydrate, RRT 1.00","[1]; Week 8, 25/60",99.97 Area %
same,"Total Impurities, Area % (215 nm)","[1]; Week 8, 25/60",<0.1 Area %
same,"Area % (215 nm), peak 2, RRT 1.09","[1]; Week 8, 40/75",<0.1 Area %
same,"Area % (215 nm), peak 3, RRT 1.25","[1]; Week 8, 40/75",<0.1 Area %
same,"Area % (215 nm), peak 4, RRT 1.53","[1]; Week 8, 40/75",<0.1 Area %
same,"Area % (215 nm), peak monohydrate, RRT 1.00","[1]; Week 8, 40/75",99.92 Area %
same,"Total Impurities, Area % (215 nm)","[1]; Week 8, 40/75",<0.1 Area %
same,"Area % (215 nm), peak 2, RRT 1.09","[1]; Week 8, 60 C.",<0.1 Area %
same,"Area % (215 nm), peak 3, RRT 1.25","[1]; Week 8, 60 C.",<0.1 Area %
same,"Area % (215 nm), peak 4, RRT 1.53","[1]; Week 8, 60 C.",<0.1 Area %
same,"Area % (215 nm), peak monohydrate, RRT 1.00","[1]; Week 8, 60 C.",99.97 Area %
same,"Total Impurities, Area % (215 nm)","[1]; Week 8, 60 C.",<0.1 Area %
same,"Area % (215 nm), peak 2, RRT 1.09","[1]; Week 12, 25/60",<0.1 Area %
same,"Area % (215 nm), peak 3, RRT 1.25","[1]; Week 12, 25/60",<0.1 Area %
same,"Area % (215 nm), peak 4, RRT 1.53","[1]; Week 12, 25/60",<0.1 Area %
same,"Area % (215 nm), peak monohydrate, RRT 1.00","[1]; Week 12, 25/60",100.0 Area %
same,"Total Impurities, Area % (215 nm)","[1]; Week 12, 25/60",<0.1 Area %
same,"Area % (215 nm), peak 2, RRT 1.09","[1]; Week 12, 40/75",<0.1 Area %
same,"Area % (215 nm), peak 3, RRT 1.25","[1]; Week 12, 40/75",<0.1 Area %
same,"Area % (215 nm), peak 4, RRT 1.53","[1]; Week 12, 40/75",<0.1 Area %
same,"Area % (215 nm), peak monohydrate, RRT 1.00","[1]; Week 12, 40/75",100.0 Area %
same,"Total Impurities, Area % (215 nm)","[1]; Week 12, 40/75",<0.1 Area %
same,"Area % (215 nm), peak 2, RRT 1.09","[1]; Week 12, −20 C.",<0.1 Area %
same,"Area % (215 nm), peak 3, RRT 1.25","[1]; Week 12, −20 C.",<0.1 Area %
same,"Area % (215 nm), peak 4, RRT 1.53","[1]; Week 12, −20 C.",<0.1 Area %
same,"Area % (215 nm), peak monohydrate, RRT 1.00","[1]; Week 12, −20 C.",100.0 Area %
same,"Total Impurities, Area % (215 nm)","[1]; Week 12, −20 C.",<0.1 Area %
same,physical form,[1]; over 12 weeks at 25° C. and 60% relative humidity or at 40° C. and 75% relative humidity,remains in substantially the same physical form
same,total weight gain,[2]; between about 40% and about 90% relative humidity,about 0.2 wt. %
same,hygroscopicity,[2]; dynamic vapor sorption,non-hygroscopic
same,solubility at 138 h,"[3]; pH 4.09, water, Sample 2, duration 138 h, isolation method 1, pH 4.09, about 20 to 25° C.",259 µg/mL
same,solubility at 69 h,"[3]; pH 6.85, water, Sample 3, duration 69 h, isolation method 2, pH 6.85, about 20 to 25° C.",262 µg/mL
